Test results published in ChEMBL document CHEMBL3044683, “Antifeedant activities of tutin and 7-hydroxycoumarin acylation derivatives against Mythimna separata” (2012).

Experiments:
Mythimna separata [1] = assay: Antifeedant activity against third-instar larvae of Mythimna separata (Oriental armyworm) at 2 mg/ml applied on wheat leaf after 48 hr by non-choice leaf disk method relative to control; format: functional
Mythimna separata [2] = assay: Antifeedant activity against third-instar larvae of Mythimna separata (Oriental armyworm) at 2 mg/ml applied on wheat leaf after 24 hr by non-choice leaf disk method relative to control; format: functional

| Structure (SMILES) | AFI (Mythimna separata [1]) | AFI (Mythimna separata [2]) |
| --- | --- | --- |
| O=C(Oc1ccc2ccc(=O)oc2c1)c1ccc(Cl)nc1 [7-(6-CHLORONICOTINOYLOXY)COUMARIN] | 37.9% | 45.3% |
| O=C(Oc1ccc2ccc(=O)oc2c1)c1ccc([N+](=O)[O-])cc1 [7-(4-NITROBENZOYLOXY)COUMARIN] | 10.8% | -7.5% |
| C=C1CC[C@@H]2[C@](C)(CO)[C@H](O)CC[C@@]2(C)[C@@H]1C/C=C1/C(=O)OC[C@H]1O [ANDROGRAPHOLIDE] | 9.6% | 26.7% |
| CS(=O)(=O)Oc1ccc2ccc(=O)oc2c1 [7-METHANESULFONYLOXYCOUMARIN] | 53.7% | 62.4% |
| C=C(C)[C@H]1[C@H]2OC(=O)[C@@H]1[C@@]1(O)[C@H]3O[C@H]3[C@]3(CO3)[C@]1(C)[C@@H]2O [TUTIN] | 31.8% | 22.7% |
| O=c1ccc2ccc(O)cc2o1 [UMBELLIFERONE] | 17.3% | 25.4% |
| O=C(Oc1ccc2ccc(=O)oc2c1)c1ccc(Cl)cc1 [7-(4-CHLOROBENZOYLOXY)COUMARIN] | 17.5% | 9.2% |
| O=C(Oc1ccc2ccc(=O)oc2c1)c1ccc(Cl)cc1Cl [7-(2,4-DICHLOROBENZOYLOXY)COUMARIN] | 18.3% | 6.3% |
| COc1ccc(C(=O)Oc2ccc3ccc(=O)oc3c2)cc1 [7-(4-METHOXYBENZOYLOXY)COUMARIN] | 35.4% | 32.3% |
| O=C(Oc1ccc2ccc(=O)oc2c1)c1cc([N+](=O)[O-])cc([N+](=O)[O-])c1 [7-(3,5-DINITROBENZOYLOXY)COUMARIN] | 49.1% | 46.7% |
| C/C=C(\C)C(=O)O[C@H]1C[C@@H](OC(C)=O)[C@@]2(C(=O)OC)CO[C@H]3[C@@H](O)[C@@](C)([C@]45O[C@@]4(C)[C@@H]4C[C@H]5O[C@@H]5OC=C[C@@]54O)[C@H]4[C@]1(CO[C@]4(O)C(=O)OC)[C@@H]32 [AZADIRACHTIN A] | 43.8% | 37.3% |
